Assay results published in patent publication US20180353518A1, “OPHTHALMIC SOLUTIONS” (Santen Pharmaceutical Co., LTD., priority 2000, published 2018).

Experiment: Solubility Test with polysorbate 80 in water
Assay type: physicochemical
Details: room temperature and 40° C.
Experimental: In order to formulate a drug which is hardly soluble in water in an ophthalmic solution, it is necessary to devise to dissolve the drug in water. Since the nonionic surfactant acts as the solubilizing agent, the following solubility tests were performed in order to make sure of its required amount.
Test method: The present compound having a concentration exceeding solubility and polysorbate 80 were added to 10 ml of water, the mixtures were stirred at 5° C., room temperature and 40° C. for 24 hours respectively and then centrifuged at 20,000 rpm, and concentrations of the present compound contained in the supernatants were measured by the HPLC method. […] The “%” in the FIGURE is % by weight.

For `CC(C)OC(=O)CCC/C=C\C[C@@H]1[C@@H](/C=C/C(F)(F)COc2ccccc2)[C@H](O)C[C@@H]1O` [the present compound, 16-Phenoxy-15-deoxy-15,15-difluoro-17,18,19,20-tetranorprostaglandin F2α isopropyl ester], the “Water-solubility of the present compound versus temperature” value (5° C., with polysorbate 80 (FIG. 1)) was “at low temperatures is higher than that at high temperatures” and the “solubility of the present compound versus amount of polysorbate 80” value (water, stirred 24 hours at 5° C., supernatant by HPLC (FIG. 1)) was “increases depending on amounts of polysorbate 80”.
